From patent publication US7879846B2, “Serine hydrolase inhibitors” (Kyorin Pharmaceutical Co.., Ltd., priority 2006, dated 2011) come the findings set out here.

Each structure is given as a SMILES string.

This experiment deals with T1, Human sputum neutrophil elastase (Homo sapiens, UniProt P08246).
T1 construct: purchased Elastin Products Co; host or cells: human sputum (natural source)
T1 sequence (P08246 30-247 limits assumed): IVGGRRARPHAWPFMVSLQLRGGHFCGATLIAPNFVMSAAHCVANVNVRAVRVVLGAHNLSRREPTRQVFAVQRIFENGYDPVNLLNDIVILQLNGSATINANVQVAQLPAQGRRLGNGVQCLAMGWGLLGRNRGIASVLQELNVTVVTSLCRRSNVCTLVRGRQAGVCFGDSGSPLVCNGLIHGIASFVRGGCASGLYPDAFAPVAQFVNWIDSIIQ
Nature of the experiment: Inhibitor IC50 against human neutrophil elastase (fluorogenic MeOSuc-AAPV-AMC substrate). It is filed as biochemical. Particulars: 20 min preincubation, read-out: HNE IC50. As to the method:
Determination of Inhibitor IC50 Values Against Human Neutrophil Elastase
Human sputum neutrophil elastase (Elastin Products Co.) was diluted into Assay Buffer A (200 mM Tris pH 7.4, 1 mg/ml BSA) to a working concentration of 0.55 U/ml. […] DMSO alone was used as the negative control. MeOSuc-AAPV-AMC (Bachem) substrate was dissolved in DMSO to 20 mM and further diluted to 1 mM in Assay Buffer A immediately before use. Substrate was added to the elastase assay at a final concentration of 1×10^−4 M. The reaction was allowed to proceed for 20 minutes at room temperature and then quenched with acetic acid at a final concentration of 3% (v/v). […] Fluorescence intensity versus inhibitor concentration was plotted and fit to the Hill equation to quantify IC50 values.
By IC50 is commonly meant the midpoint of a concentration-inhibition curve. Regarding `CCN(CC)CC1CN(c2ncccc2-c2nc3cccc(C)c3c(=O)o2)CCO1` (centres unmarked) [Compound 60], the IC50 is above 150 nM.

Take `Cc1cccc2nc(-c3cccnc3OCCN(C)C)oc(=O)c12` [Compound 61]: the IC50 was above 150 nM.

As to `Cc1cccc2nc(-c3cccnc3N3CCS(=O)(=O)CC3)oc(=O)c12` [Compound 62], the IC50 is above 150 nM.

Regarding `CN1CCN(c2ncccc2-c2nc3cccc(C(F)(F)F)c3c(=O)o2)CC1` [Compound 63], the IC50 was in the range of 16 to 60 nM.

As to `O=c1oc(-c2cccnc2-n2ccnc2)nc2cccc(C(F)(F)F)c12` [Compound 64], the IC50 was below 15 nM.

For `Cc1cccc2nc(-c3cccnc3-n3cc[n+](C)c3)oc(=O)c12` [Compound 65], the IC50 was above 150 nM.

`COc1cccc2nc(-c3cccnc3-n3ccnc3)oc(=O)c12` [Compound 66]: the IC50 is above 150 nM.

As to `CCc1cccc2nc(-c3cccnc3-n3ccnc3)oc(=O)c12` [Compound 67], the IC50 was below 15 nM.

As to `Cc1cccc2nc(-c3ncccc3-n3ccnc3)oc(=O)c12` [Compound 68], the IC50 is above 150 nM.

In the case of `COc1cccc2nc(-c3ncccc3-n3ccnc3)oc(=O)c12` [Compound 69], the IC50 is above 150 nM.

Regarding `O=c1oc(-c2ncccc2-n2ccnc2)nc2cccc(Cl)c12` [Compound 70], the IC50 is above 150 nM.

With `O=c1oc(-c2cccnc2-n2ccnc2)nc2cccc(Cl)c12` [Compound 71], the IC50 was above 150 nM.

Regarding `O=c1oc(-c2cccnc2-n2ccnc2)nc2cccc(Br)c12` [Compound 72], the IC50 lay in the range of 61 to 150 nM.

Turning to `Cc1cccc2nc(-c3cccc[n+]3[O-])oc(=O)c12` [Compound 73], the IC50 was above 150 nM.

On to `COc1cc(C)c2c(=O)oc(-c3cccnc3-n3ccnc3)nc2c1` [Compound 83], for which the IC50 was above 150 nM.

For the compound `CCc1cccc2nc(-c3cccnc3-n3cc[n+](C)c3)oc(=O)c12` [Compound 84], the IC50 was 16 to 60 nM.

Turning to `CCc1cccc2nc(-c3cccnc3N3CCC(N(C)C)C3)oc(=O)c12` (centres unmarked) [Compound 85], the IC50 was below 15 nM.

With `CCc1cccc2cc(-c3c[n+]([O-])ccc3Sc3ccc(Cl)cc3)oc(=O)c12` [Compound 86], the IC50 is 61 to 150 nM.

Take `CCc1cccc2nc(-c3cccnc3-n3cc[n+](CCCS(=O)(=O)[O-])c3)oc(=O)c12` [Compound 87]: the IC50 was below 15 nM.

As to `CCc1cccc2nc(-c3cccnc3N3CCN(CCOC)CC3)oc(=O)c12` [Compound 89], the IC50 is below 15 nM.

For `CCc1cccc2nc(-c3cccnc3N3CC[C@H](N(C)C)C3)oc(=O)c12` [Compound 91], the IC50 was below 15 nM.

Turning to `CCc1cccc2nc(-c3cccnc3N3CCCN(C)CC3)oc(=O)c12` [Compound 92], the IC50 was below 15 nM.

Regarding `CCc1cccc2nc(-c3cccnc3N3CCN(CCC#N)CC3)oc(=O)c12` [Compound 93], the IC50 is below 15 nM.

In the case of `CCc1cccc2nc(-c3cccnc3-n3cc[n+](Cc4ccc(Cl)cc4)c3)oc(=O)c12` [Compound 94], the IC50 is 16 to 60 nM.

As for `CCc1cccc2nc(-c3cccnc3N3CC[N+](C)(C)CC3)oc(=O)c12` [Compound 95], the IC50 was below 15 nM.

Consider `CCc1cccc2nc(-c3cccnc3N3CC[N+](C)(CCOC)CC3)oc(=O)c12` [Compound 96], for which the IC50 is below 15 nM.

With `CCc1cccc2nc(-c3ncccc3-n3ccnc3)oc(=O)c12` [Compound 97], the concentration for half-maximal inhibition (IC50) is below 15 nM.

For `CCc1cccc2nc(-c3cccnc3N3CCC[C@H]3CN3CCCC3)oc(=O)c12` [Compound 98], the IC50 was below 15 nM.

As to `CCc1cccc2nc(-c3cccnc3N3CCN(Cc4ccc(F)cc4)CC3)oc(=O)c12` [Compound 99], the IC50 was below 15 nM.

`CCc1cccc2nc(-c3cccnc3N3CC[C@@H](N(C)C)C3)oc(=O)c12` [Compound 100]: the half-maximal inhibitory concentration (IC50) was below 15 nM.

In the case of `CCc1cccc2nc(-c3cccnc3N3CC[N+](C)(CC(N)=O)CC3)oc(=O)c12` [Compound 101], the IC50 was below 15 nM.

With `CCc1cccc2nc(-c3cccnc3N3CC[N+](C)(Cc4ccc(OC)cc4)CC3)oc(=O)c12` [Compound 102], the IC50 was below 15 nM.
